From patent publication US20220089663A1, “PROTEINS AND FLUOROPHORE-CONTAINING COMPOUNDS SELECTIVE FOR NaV1.7” (MEMORIAL SLOAN KETTERING CANCER CENTER, priority 2019, published 2022)

What was measured:
hNav1.7 = molecular target: T1, hNav1.7 (Homo sapiens, UniProt Q15858); experiment: automated whole-cell patch clamp (QPatch 16X), HEK293-hNav1.7; type: cell-based
T1 construct: host or cells: HEK293

[1] = acute in vivo toxicity after intravenous injection; set-up: species or system mouse
Method: Acute in vivo toxicity. All animal experiments were performed in accordance with protocols approved by the Institutional Animal Care and Use Committee of MSK and followed the National Institute of Health guidelines for animal welfare. Six athymic nude mice 6-8 weeks old were purchased from Envigo RMS, Inc. An intravenous (IV) catheter was placed in tail vein of each mouse and they were anesthetized using Isoflurane (Novaplus, Telangana-India). Anesthesia was maintained using 1.0 to 1.5 L/min of Isoflurane and 2 L/min of oxygen. Three animals were injected with 68 μM, 7 nmol Hsp1a-FL in 100 μL of PBS, and the other three with […], of PBS. Animals were monitored using a rodent surgical monitor (Indus instruments, Houston, Tex.) before, during, and up to 16 minutes after injection. Numeric data points represent averaged values of 5±1 seconds duration. Data was collected before injection, 15 seconds after injection, 5 minutes after injection and 15 minutes after injection. Mouse body core temperature was measured by placing a rectal probe and electronically regulated via a surgical platform. The high-resolution electrocardiogram (EKG) was measured by placing non-invasive electrodes on the 4 paws and electrical contact was assured using a conducting gel (Electrode cream, Indus instruments, Houston, Tex.). Heart rate was automatically calculated from the R-R peaks derived from the EKG signal. Peripheral capillary oxygen saturation (SpO2) was non-invasively measured by placing a clip sensor on the animal's left thigh.
Statistical Analysis. Data were statistically analyzed by generalized estimating equations followed by LSD post hoc test when appropriate using SPSS 23.0. During animal toxicity studies, data points representing loss of signal were excluded from the analysis. Loss of signal was defined by a brief contact loss between the monitoring equipment and the mice (creating a “false” zero or −1 result). Loss of signal was corrected by placing the electrode in close contact to the mice. Average and standard deviations were calculated for each mouse.
Unless otherwise stated, data points represent mean values and error bars represent the standard deviation of biological replicates (mean±SEM). All p-values were calculated using a Student's unpaired t-test. Statistical significance was considered for p-values<0.05 and as follows: ns=not significant, *p<0.05, **p<0.01, ***p<0.001. Mann-Whitney tests were used for analysis of the unpaired samples (e.g. vital signs in mice injected with Hsp1a and mice from the control group) and the Wilcoxon test was used for analysis of paired samples (e.g. vital signs from same mouse before and after injection). Statistical significance was determined with alpha=0.05. Analysis and figures were prepared in GraphPad Prism 8.

in vitro = conditions: human, serum
[2] = 10 μM, human serum, 37° C.
mouse sciatic nerves = experiment: epifluorescence imaging (IVIS Spectrum) of sciatic nerves and organs 30 min after injection; type: in vivo; conditions: 30 minutes after systemic injection
Method: Animal Model. Female athymic nude mice (4-8 week-old, athymic-Nude (outbred) (Stock #: 088; Envigo, USA) were allowed to acclimatize at the Memorial Sloan Kettering Cancer Center (MSK) vivarium for 1 week with ad libitum food and water prior to the experimental procedure. For imaging experiments, animals were sacrificed 30 min post-tail vein injection of Hs1a-FL, Hs1a/Hs1a-FL, Hsp1a-FL, Hsp1a/Hsp1a-FL, or PBS. All animal experiments were performed in accordance with institutional guidelines and approved by the IACUC of MSK, following NIH guidelines for animal welfare.
Epifluorescence Imaging. Animals were intravenously injected with Hsp1a-FL (7 nmol, 68 μM of Hsp1a-FL in 100 μL of PBS, n=9), or Hs1a-FL (4 nmol, 45 μM of Hs1a-FL in 100 μL of PBS, n=3). To assess the specificity of the Hsp1a-FL or Hs1a-FL accumulation, animals were injected with a combination of Hsp1a and Hsp1a-FL (Hsp1a-FL, 68 μM, 7 nmol and Hsp1a 204 μM, 21 nmol in 100 μL PBS, n=9), Hs1a and Hs1a-FL (Hs1a-FL, 45 μM, 4 nmol and Hs1a, 120 μM, 12 nmol in 100 μL PBS, n=3) or PBS (n=9). Animals were sacrificed 30 min post-injection and epifluorescence images obtained. Epifluorescence images of the right sciatic nerve (RSN) and the left sciatic nerve (LSN) were obtained in situ. Epifluorescence of the biodistribution of the peptides in excited RSN, LSN, muscle, heart, kidney, liver, and brain were acquired with IVIS Spectrum (PerkinElmer) using a predefined GFP filterset (e.g., excitation=465/30 nm, emission=520-580 nm) based on the particular fluorophore employed in the compounds. Autofluorescence was removed through spectral unmixing. Semiquantitative analysis of the Hsp1a-FL or Hs1a-FL signal was conducted by measuring the average radiant efficiency (in units of unit [p/s/cm^2/sr]/[μW/cm^2]) in regions of interest (ROIs) that were placed on all resected organs under white light guidance.

T1 sequence (Q15858 whole entry): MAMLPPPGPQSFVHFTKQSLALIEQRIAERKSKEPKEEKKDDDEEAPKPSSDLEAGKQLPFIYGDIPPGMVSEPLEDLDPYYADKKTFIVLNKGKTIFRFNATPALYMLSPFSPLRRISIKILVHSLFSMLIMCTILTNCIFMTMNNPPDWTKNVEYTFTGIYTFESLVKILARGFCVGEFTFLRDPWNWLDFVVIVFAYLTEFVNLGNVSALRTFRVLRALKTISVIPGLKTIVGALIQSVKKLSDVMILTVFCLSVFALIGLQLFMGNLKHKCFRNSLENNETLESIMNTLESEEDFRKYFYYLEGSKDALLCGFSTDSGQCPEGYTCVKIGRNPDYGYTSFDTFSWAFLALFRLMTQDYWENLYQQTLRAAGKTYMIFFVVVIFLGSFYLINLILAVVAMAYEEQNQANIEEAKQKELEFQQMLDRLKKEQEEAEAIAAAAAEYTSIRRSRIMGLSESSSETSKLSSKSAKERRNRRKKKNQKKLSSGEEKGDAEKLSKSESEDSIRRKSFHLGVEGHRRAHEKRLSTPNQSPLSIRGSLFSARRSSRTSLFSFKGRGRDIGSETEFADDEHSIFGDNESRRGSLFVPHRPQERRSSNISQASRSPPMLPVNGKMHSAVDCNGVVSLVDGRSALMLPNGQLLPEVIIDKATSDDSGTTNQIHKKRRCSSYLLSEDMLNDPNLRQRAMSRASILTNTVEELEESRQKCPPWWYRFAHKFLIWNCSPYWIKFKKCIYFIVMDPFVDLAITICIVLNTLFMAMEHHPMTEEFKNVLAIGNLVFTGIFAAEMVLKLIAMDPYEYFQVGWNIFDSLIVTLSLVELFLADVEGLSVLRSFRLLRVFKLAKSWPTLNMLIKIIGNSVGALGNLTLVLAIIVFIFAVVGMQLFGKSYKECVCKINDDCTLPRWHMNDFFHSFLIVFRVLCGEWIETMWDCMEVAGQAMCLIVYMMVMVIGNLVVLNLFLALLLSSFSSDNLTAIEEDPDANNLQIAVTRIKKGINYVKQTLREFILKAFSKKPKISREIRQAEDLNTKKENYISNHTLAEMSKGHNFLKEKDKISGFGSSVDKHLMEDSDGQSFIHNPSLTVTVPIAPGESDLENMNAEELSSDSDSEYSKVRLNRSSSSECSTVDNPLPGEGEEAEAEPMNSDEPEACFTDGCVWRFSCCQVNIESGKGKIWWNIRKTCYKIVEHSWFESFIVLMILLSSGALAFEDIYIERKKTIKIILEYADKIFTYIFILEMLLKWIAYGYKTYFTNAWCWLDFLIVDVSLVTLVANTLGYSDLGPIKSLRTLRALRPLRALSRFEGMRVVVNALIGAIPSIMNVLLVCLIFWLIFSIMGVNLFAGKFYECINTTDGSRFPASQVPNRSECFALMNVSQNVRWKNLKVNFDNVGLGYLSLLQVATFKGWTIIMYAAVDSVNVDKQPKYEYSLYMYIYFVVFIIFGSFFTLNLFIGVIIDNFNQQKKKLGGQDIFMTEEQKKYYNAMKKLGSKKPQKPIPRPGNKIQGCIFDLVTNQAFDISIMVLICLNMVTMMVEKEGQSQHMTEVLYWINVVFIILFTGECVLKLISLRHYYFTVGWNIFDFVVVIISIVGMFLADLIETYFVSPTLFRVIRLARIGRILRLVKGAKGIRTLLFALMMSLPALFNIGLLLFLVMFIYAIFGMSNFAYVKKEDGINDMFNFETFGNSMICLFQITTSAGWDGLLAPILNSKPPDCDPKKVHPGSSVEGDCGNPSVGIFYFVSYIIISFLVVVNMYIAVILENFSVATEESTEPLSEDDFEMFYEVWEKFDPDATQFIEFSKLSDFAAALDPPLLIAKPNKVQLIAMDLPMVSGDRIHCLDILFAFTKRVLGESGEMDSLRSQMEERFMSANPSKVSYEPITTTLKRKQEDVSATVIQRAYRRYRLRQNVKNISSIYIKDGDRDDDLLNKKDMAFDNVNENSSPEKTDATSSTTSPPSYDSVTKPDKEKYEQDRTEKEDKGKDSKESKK
T1 sequence (Q07699 19-218, further chain): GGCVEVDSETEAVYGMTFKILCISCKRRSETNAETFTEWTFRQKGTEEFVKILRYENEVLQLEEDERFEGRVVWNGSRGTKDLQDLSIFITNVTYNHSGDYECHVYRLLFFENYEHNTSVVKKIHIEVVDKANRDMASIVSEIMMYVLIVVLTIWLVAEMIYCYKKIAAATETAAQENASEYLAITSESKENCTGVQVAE

Q: Which “pIC50 difference to sHsp1a on hNav1.7” value (hNav1.7) does the source give for `CC[C@H](C)[C@H](NC(=O)[C@H](CCCCN)NC(=O)[C@@H]1CSSC[C@@H]2NC(=O)[C@@H]3CCCN3C(=O)[C@H](CCCNC(=N)N)NC(=O)[C@H](CCC(=O)O)NC(=O)[C@H](CO)NC(=O)[C@H](CC(=O)O)NC(=O)[C@@H]3CSSC[C@H](NC(=O)[C@H](C(C)C)NC(=O)[C@H](CC(C)C)NC(=O)CNC(=O)[C@H](CCC(=O)O)NC(=O)[C@H](CSSC[C@H](NC(=O)[C@@H](N)Cc4ccc(O)cc4)C(=O)N[C@@H](CCC(N)=O)C(=O)N[C@@H](CCCCN)C(=O)N[C@@H](Cc4ccccc4)C(=O)N[C@@H](CC(C)C)C(=O)N[C@@H](Cc4c[nH]c5ccccc45)C(=O)N[C@@H]([C@@H](C)O)C(=O)N3)NC2=O)C(=O)N[C@@H](CCCNC(=N)N)C(=O)N[C@@H](CC(C)C)C(=O)N[C@@H](Cc2c[nH]c3ccccc23)C(=O)N1)C(=O)N[C@@H](CC(N)=O)C(N)=O` [Hsp1a] here?
A: no significant pIC50s difference

Q: What about the IC50 (hNav1.7; HEK293 cells stably expressing human channel, read-out: IC50 Nav1.7) of the same compound?
A: 13 nM

Q: And the average core temperature ([1]; 15 seconds post injection)?
A: 34.5 °C

Q: And the average core temperature ([1]; 5 min post-injection)?
A: 34.6 °C

Q: What about the average core temperature ([1]; 15 minutes post-injection) of the same compound?
A: 34.6 °C

Q: What about the EKG pattern ([1]; before and up to 16 minutes after injection) of the same compound?
A: No changes were observed

Q: Which remaining at 24 h (in vitro) does the source give for `CSCC[C@@H]1NC(=O)[C@H](CC(C)C)NC(=O)[C@H](CCCNC(=N)N)NC(=O)[C@H](CO)NC(=O)[C@@H]2CSSC[C@@H]3NC(=O)[C@H](CO)NC(=O)CNC(=O)[C@H]([C@@H](C)O)NC(=O)[C@H](CSSC[C@H](N)C(=O)N[C@@H](CCCCN)C(=O)NCC(=O)N[C@@H](CCCCN)C(=O)NCC(=O)N[C@@H](C)C(=O)N[C@@H](CCCCN)C(=O)N2)NC(=O)[C@H](CSSC[C@@H](C(N)=O)NC(=O)[C@H](CCCCN)NC(=O)CNC(=O)[C@H](CO)NC(=O)[C@H](CCCNC(=N)N)NC3=O)NC(=O)[C@H](CC(=O)O)NC(=O)[C@H](Cc2ccc(O)cc2)NC1=O` [MVIIA] here?
A: 50%

Q: Which “time of incubation in which degraded” value [2] does the source give for `CC[C@H](C)[C@@H]1NC(=O)[C@H](CCCNC(=N)N)NC(=O)[C@H](CC(=O)O)NC(=O)[C@H](CCSC)NC(=O)[C@H](CCCNC(=N)N)NC(=O)CNC(=O)CNC(=O)[C@H](Cc2ccccc2)NC(=O)[C@@H](NC(=O)[C@H](CO)NC(=O)[C@H](CO)NC(=O)[C@H](CCCNC(=N)N)NC(=O)[C@H](CCCNC(=N)N)NC(=O)[C@H](CC(C)C)NC(=O)[C@@H](N)CO)CSSC[C@@H](C(=O)N[C@@H](CC(N)=O)C(=O)N[C@@H](CO)C(=O)N[C@@H](Cc2ccccc2)C(=O)N[C@@H](CCCNC(=N)N)C(=O)N[C@@H](Cc2ccc(O)cc2)C(=O)O)NC(=O)CNC(=O)[C@H](CC(C)C)NC(=O)CNC(=O)[C@H](CO)NC(=O)[C@H](CCC(N)=O)NC(=O)[C@H](C)NC(=O)CNC1=O` [hANP, reference compound] here?
A: 1 to 2 h

Q: For “YCQK(BODIPY665)FLWTCDSERPCCEGLVCRLWCKIN-NH2 (N-terminal YCQK(BODIPY665) extension; C-terminal amide) [Hsp1a-BODIPY665]”, which “biodistribution in various tissues” value (mouse sciatic nerves) is on record?
A: limited to the peripheral nervous system

Q: Which “biodistribution in various tissues” value (mouse sciatic nerves) does the source give for “YCQK(CY7.5)FLWTCDSERPCCEGLVCRLWCKIN-NH2 (N-terminal YCQK(CY7.5) extension; C-terminal amide) [Hsp1a-CY7.5]” here?
A: limited to the peripheral nervous system

Q: Which “biodistribution in various tissues” value (mouse sciatic nerves) does the source give for “YCQK(DY-684)FLWTCDSERPCCEGLVCRLWCKIN-NH2 (N-terminal YCQK(DY-684) extension; C-terminal amide) [Hsp1a-DY-684]” here?
A: limited to the peripheral nervous system

Q: For “YCQK(IR-800)FLWTCDSERPCCEGLVCRLWCKIN-NH2 (N-terminal YCQK(IR-800) extension; C-terminal amide) [Hsp1a-IR800]”, which “biodistribution in various tissues” value (mouse sciatic nerves) is on record?
A: limited to the peripheral nervous system

Q: Which “biodistribution in various tissues” value (mouse sciatic nerves) does the source give for “YCQK(Jane1ia669)FLWTCDSERPCCEGLVCRLWCKIN-NH2 (N-terminal YCQK(Janelia669) extension; C-terminal amide) [Hsp1a-Janelia669]” here?
A: limited to the peripheral nervous system
